Here are results for seven compounds from ChEMBL document CHEMBL1201862, “PubChem BioAssay data set” (2004).

Among the test systems are SR; OVCAR-8; HOP-92; 786-0; NCI-H460; HCT-15; SK-OV-3; RXF 393; A498; MOLT-4; KM12; SF-295; MDA-N; CCRF-CEM; TK-10; K562; NCI/ADR-RES; SN12C; NCI-H23; SF-539.
Common to all, as to assay: growth of human tumour cells (NCI), 48 h

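Following 48 hours of exposure in 96-well plates, responses at five concentrations were used to interpolate endpoints linearly. Abbreviation: GI50, concentration required for 50% inhibition of growth.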 Active and inactive are the calls of the source. Cut-off read from the data, not from the text of the source: active = GI50 up to about 1.1 µM and inactive = higher. Where only a bound is given, the exact number is not on record here.

Turning to `C1=C\SS/C=C\SS/1`, the GI50 in the test on SR is > 100 µM (inactive); in the test on OVCAR-8 it was 17.1 µM (inactive); with HOP-92 it was 24.3 µM (inactive); in the test on 786-0, 17 µM (inactive); in the test on NCI-H460, 23.9 µM (inactive); with HCT-15 it was 14.4 µM. In addition, the GI50 with SK-OV-3 is > 100 µM (inactive); in the test with RXF 393, 32.2 µM (inactive); in the test on A498 it was > 100 µM (inactive); in the test on MOLT-4 it was 12.9 µM (inactive); in the test with KM12, 36 µM (inactive); in the test on SF-295, 58.1 µM (inactive). For the same compound, the GI50 in the test with MDA-N is 40.3 µM (inactive); in the test with CCRF-CEM it was 2.28 µM (inactive); with TK-10, 40.7 µM (inactive); in the test on K562, 26.1 µM (inactive); with NCI/ADR-RES, 46 µM (inactive); with SN12C, 61.9 µM (inactive). Further, in the test on NCI-H23, the GI50 is 40.9 µM (inactive).

Turning to `O=C1NNC2NC(=O)C3(NN2C1=O)c1ccccc1-c1ccccc13` (stereo unspecified), the GI50 in the test on SR, with OVCAR-8, in the test on HOP-92, with 786-0, in the test on NCI-H460 and in the test with SF-539 was > 100 µM (inactive) throughout. Further, the GI50 is above 100 µM in the test with HCT-15; > 100 µM (inactive) with SK-OV-3; > 100 µM (inactive) with RXF 393; > 100 µM (inactive) in the test with A498; > 100 µM (inactive) with SF-295; > 100 µM (inactive) with MDA-N. The GI50 with CCRF-CEM, in the test with TK-10, with K562, with NCI/ADR-RES, in the test with SN12C and in the test on NCI-H23 was > 100 µM (inactive) in each case.

For `O=C(Nc1ccc2[nH]c(C(=O)N3CC(CCl)c4c3cc([N+](=O)[O-])c3ccccc43)cc2c1)c1cc2ccccc2o1` (stereo unspecified), the GI50 in the test with SR was 95.9 µM (inactive); in the test with OVCAR-8 it was > 55.6 µM (inactive); in the test with HOP-92 it was > 58.5 µM (inactive); with 786-0 it was > 100 µM (inactive); with NCI-H460, > 37.5 µM (inactive); with SF-539, > 1100 µM (inactive). For the same compound, the GI50 was above 63.4 µM in the test on HCT-15; > 100 µM (inactive) in the test with SK-OV-3; > 1100 µM (inactive) in the test with RXF 393; > 57.7 µM (inactive) with A498; > 100 µM (inactive) in the test with KM12; 395 µM (inactive) in the test on SF-295. The GI50 was > 100 µM (inactive) with MDA-N; 46.1 µM (inactive) in the test on CCRF-CEM; > 54.5 µM (inactive) in the test on TK-10; > 100 µM (inactive) in the test on K562; > 50.6 µM (inactive) in the test on NCI/ADR-RES; > 100 µM (inactive) in the test with SN12C. The GI50 with NCI-H23 was > 55.7 µM (inactive).

Regarding `COC(=O)C1=C(C)NC(C)=C(C(=O)OC)C1c1cccc(N=O)c1`, the GI50 in the test with SR was 5.41 µM (inactive); in the test with OVCAR-8, 15 µM (inactive); in the test with HOP-92 it was 7.69 µM (inactive); with 786-0 it was 16.7 µM (inactive); in the test on NCI-H460, 16 µM (inactive); in the test with SF-539 it was 19.1 µM (inactive). The GI50 in the test with HCT-15 was 17.8 µM; with SK-OV-3 it was 25.4 µM (inactive); in the test on RXF 393, 13.3 µM (inactive); in the test on A498, 35 µM (inactive); in the test on MOLT-4, 4.76 µM (inactive); with KM12, 16.6 µM (inactive). Besides, the GI50 in the test on SF-295 is 52.8 µM (inactive); in the test on MDA-N, 13.3 µM (inactive); in the test on CCRF-CEM, 3.55 µM (inactive); with TK-10, 15 µM (inactive); in the test with K562 it was 4.69 µM (inactive); in the test with NCI/ADR-RES, 22.5 µM (inactive). Moreover, the GI50 is 18.8 µM (inactive) in the test on SN12C and 19.5 µM (inactive) in the test on NCI-H23.

Regarding `COc1cc(C2S/C(=C/c3ccccc3)C(=O)N2c2cc(Cl)ccc2Cl)cc(OC)c1OC` (stereo unspecified), the GI50 with SR is 44.9 µM (inactive); in the test on OVCAR-8, 36.3 µM (inactive); in the test with HOP-92, 51.2 µM (inactive); in the test with 786-0, 18.8 µM (inactive); with NCI-H460, > 100 µM (inactive); in the test on SF-539, 17.9 µM (inactive). Moreover, the GI50 is 38.3 µM in the test on HCT-15; > 100 µM (inactive) in the test with SK-OV-3; 39.4 µM (inactive) in the test with RXF 393; > 100 µM (inactive) in the test with A498; 34.8 µM (inactive) in the test with MOLT-4; 19 µM (inactive) in the test on KM12. Further, the GI50 with SF-295 is 60.3 µM (inactive); in the test with MDA-N, 34.5 µM (inactive); in the test on CCRF-CEM, 35.2 µM (inactive); with TK-10, > 100 µM (inactive); with K562, 47 µM (inactive); in the test with NCI/ADR-RES it was 28.2 µM (inactive). In addition, the figures for the GI50 with SN12C and in the test with NCI-H23 were 45.9 µM (inactive) and 49.4 µM (inactive), respectively.

Regarding `C=CC(COC(=O)C(C)(C)OC(C)=O)c1ccc(OC(=O)C(C)C)c(OC)c1` (stereo unspecified), the GI50 in the test with SR is 2.56 µM (inactive); in the test with OVCAR-8, 9.82 µM (inactive); with HOP-92, 2.73 µM (inactive); with 786-0, 7.38 µM (inactive); in the test on NCI-H460 it was 2.62 µM (inactive); in the test on SF-539, 11.8 µM (inactive). Also, the GI50 was 2.03 µM in the test on HCT-15; 16.5 µM (inactive) in the test with SK-OV-3; 6.07 µM (inactive) in the test with RXF 393; 17.2 µM (inactive) in the test with A498; 3.62 µM (inactive) in the test with MOLT-4; 4.07 µM (inactive) in the test with KM12. Besides, the GI50 is 4.23 µM (inactive) with SF-295; 3.52 µM (inactive) in the test with MDA-N; 2.78 µM (inactive) in the test with CCRF-CEM; 8.57 µM (inactive) with TK-10; 30.5 µM (inactive) in the test on K562; 11 µM (inactive) with NCI/ADR-RES. Moreover, the GI50 with SN12C was 3.34 µM (inactive); with NCI-H23, 18.8 µM (inactive).

Take `C[C@]12CC[C@@H]3c4cc(C=O)c(OCc5ccccc5)cc4CC[C@H]3[C@@H]1CCC2OCc1ccccc1` (stereo partly specified): the GI50 in the test with SR is 73.1 µM (inactive); with OVCAR-8, > 100 µM (inactive); in the test with HOP-92 it was > 100 µM (inactive); with 786-0 it was > 100 µM (inactive); in the test on NCI-H460 it was > 100 µM (inactive); in the test on SF-539 it was > 100 µM (inactive). Besides, the GI50 in the test on HCT-15 was above 100 µM; in the test on SK-OV-3, > 100 µM (inactive); with RXF 393 it was > 100 µM (inactive); with A498 it was > 100 µM (inactive); in the test with MOLT-4 it was > 100 µM (inactive); with KM12, > 100 µM (inactive). The GI50 with SF-295, with MDA-N, in the test on CCRF-CEM, with TK-10, in the test on K562 and with NCI/ADR-RES was > 100 µM (inactive) throughout. The GI50 with SN12C was > 100 µM (inactive); in the test on NCI-H23 it was 89.9 µM (inactive).
